Tests used:
Assay type in all cases: in vivo
[1] = tested on: Ustilago nuda; assay: Example B-5: comparison test with prior art compound B, activity against Ustilago nuda on barley; conditions: 10 g active ingredient per 100 kg seed; for % Control / % infected heads: barley seed treatment; for % Control: relative to untreated; for % infected heads: untreated 13
Procedure: (§1) After application of the active ingredient formulated as a flowable concentrate for seed treatment onto U. nuda-infected seeds of winterbarley the seeds are sown in trays filled with field soil. The trays are transferred to a growth room and kept there for 2 days at 20° C. and then for 2 weeks at 2° C. After this period the trial is transferred to a greenhouse where a temperature of 15° C. and a 14 hr light period is provided until flowering. The following assessments are made: number of infected heads. Each number is determined for 200 seeds per treatment (2 replicates a 100 seeds). The activity against Ustilago nuda on barley of the racemic compound of formula Ia according to the invention was compared with racemic compound B, which is described as compound no. 2.69 on pages 7, table 2, and page 16, table 7, of WO 03/074491. The method used to compare the activity is described under example B-4 above.

[2] = tested on: Ustilago nuda; assay: Example B-6: comparison test with prior art compound C, activity against Ustilago nuda on barley; conditions: 10 g active ingredient per 100 kg seed; for % Control / % infected heads: barley seed treatment; for % Control: relative to untreated; for % infected heads: untreated 13
Procedure: as §1, with “C (trans/cis-ratio: 10:1),” for “B,”, “2.40” for “2.69”, “pages 6 and” for “pages”, “2,” for “2, and page 16, table 7,”

[3] = tested on: Gäumannomyces graminis; assay: Example B-1: activity against Gäumannomyces graminis on wheat, seed treatment; conditions: winterwheat seed treatment; for % root browning: inoculated field soil, 5 weeks at 17° C., untreated 50; for Control: relative to untreated
Procedure: After application of the active ingredient formulated as a flowable concentrate for seed treatment onto seeds of winterwheat the seeds are sown in trays filled with field soil. The field soil has been inoculated artificially before sowing with Gäumannomyces graminis by thoroughly mixing mycelium and soil. The trial is kept in a growth room for 5 weeks at 17° C. and a 14 hr light period. The following assessments are made: % root browning. Each number is determined for 30 seeds per treatment (3 replicates a 10 seeds).

[4] = tested on: Pyrenophora graminea; assay: Example B-3: activity against Pyrenophora graminea on barley, seed treatment; conditions: P. graminea-infected winterbarley seeds, 10 g/100 kg seed
Procedure: After application of the active ingredient formulated as a flowable concentrate for seed treatment onto P. graminea-infected seeds of winterbarley the seeds are sown in trays filled with field soil. The trays are kept in a growth room for 3 weeks at 4° C. After this period the trial is transferred to a greenhouse where a temperature of 12° C. and a 14 hr light period is provided. The following assessments are made: number of infected plants. Each number is determined for 200 seeds per treatment (2 replicates a 100 seeds).

[5] = tested on: Microdochium nivale; assay: Example B-2: activity against Microdochium nivale on wheat, seed treatment; conditions: M. nivale-infected winterwheat seeds, 10 g/100 kg seed
Procedure: After application of the active ingredient formulated as a flowable concentrate for seed treatment onto M. nivale-infected seeds of winterwheat the seeds are sown in trays filled with planting soil. The trial is kept for 4 weeks in a growth room at 4° C. and darkness. Then the temperature is increased to 15° C. and a 12 hr light period is provided. After development of the primary leaf plants are kept at 10° C. and high humidity until the trial is finished. The following assessments are made: number of infected plants. Each number is determined for 100 seeds per treatment (2 replicates a 50 seeds).

[6] = tested on: Ustilago nuda; assay: Example B-4: activity against Ustilago nuda on barley, seed treatment; conditions: U. nuda-infected winterbarley seeds; for % Control: relative to untreated; for % infected heads: untreated 23.1
Procedure: After application of the active ingredient formulated as a flowable concentrate for seed treatment onto U. nuda-infected seeds of winterbarley the seeds are sown in trays filled with field soil. The trays are transferred to a growth room and kept there for 2 days at 20° C. and then for 2 weeks at 2° C. After this period the trial is transferred to a greenhouse where a temperature of 15° C. and a 14 hr light period is provided until flowering. The following assessments are made: number of infected heads. Each number is determined for 200 seeds per treatment (2 replicates a 100 seeds).

Row | Structure (SMILES) | % Control [1] | % infected heads [1] | % Control [2] | % infected heads [2] | % root browning ([3]; 10 g/100 kg seed) | Control ([3]; 10 g/100 kg seed) | % root browning ([3]; 33 g/100 kg seed) | Control ([3]; 33 g/100 kg seed) | Control ([4]; relative to untreated) | % infected plants ([4]; untreated 54) | Control ([5]; relative to untreated) | % infected plants ([5]; untreated 38) | fungicidal action against Ustilago nuda on barley compared with racemic compound C [2] | fungicidal action against Ustilago nuda on barley compared with racemic compound B [1] | % Control ([6]; 2.5 g/100 kg seed) | % infected heads ([6]; 2.5 g/100 kg seed) | % Control ([6]; 5 g/100 kg seed) | % infected heads ([6]; 5 g/100 kg seed)
1 | Cn1cc(C(=O)Nc2ccccc2[C@@H]2C[C@H]2c2ccc(Cl)cc2)c(C(F)F)n1 (racemic) [Racemic compound B, reference compound] | 9% | 11.9% | – | – | – | – | – | – | – | – | – | – | – | – | – | – | – | –
2 | Cn1cc(C(=O)Nc2ccccc2C2CC2C2CCCC2)c(C(F)F)n1 (racemic) [Racemic compound C, reference compound] | – | – | 11% | 11.6% | – | – | – | – | – | – | – | – | – | – | – | – | – | –
3 | Cn1cc(C(=O)Nc2ccccc2[C@@H]2C[C@H]2C2CC2)c(C(F)F)n1 (racemic) [Racemic compound of formula Ia] | 100% | 0% | 100% | 0% | 28% | 44 | 20% | 60 | 98.1 | 1% | 86.8 | 5% | substantially better fungicidal action | substantially better fungicidal action | 100% | 0% | 100% | 0%

Reference: patent US8198215B2, “Methods for protecting seeds” (Sygenta Crop Protection LLC, priority 2005, dated 2012)
